A melting point compilation (Tetko et al.; mined from patent text by program, amines drawn as free bases though some values may be those of a salt)

Row | SMILES | melting point [°C]
1 | CS(=O)(=O)c1ccc(-c2nc(C(F)(F)F)sc2-c2ccc(F)cc2)cc1 | 150 to 151
2 | O=C1C(O)N(c2ccc(Oc3ccccc3)cc2)C(=S)N1c1ccccc1 (centres undefined) | 160
3 | C=C(C)C(=O)OCC(COC(=O)C(=C)C)Cc1ccc(-c2ccc(OC(=O)C(=C)C)cc2)cc1 | 49
4 | CCCOC12CCC(=O)C3(C)Oc4c(O)ccc5c4C31CCN(C)C2C5 (centres undefined) | 193 to 195
5 | CC(=O)OCC1OC(n2cc(Cc3ccc(Br)cc3)c3c(Cl)cccc32)C(OC(C)=O)C(OC(C)=O)C1OC(C)=O (centres undefined) | 223 to 225
6 | CC(=O)OCC1OC(n2cc(C)c(-n3cncn3)nc2=O)CC1N=[N+]=[N-] (centres undefined) | 143 to 145
7 | CCOC(=O)Cc1ccc(-c2ccc3c(=O)c(C(=O)NC)c(N)n(CC)c3n2)cc1 | 195
8 | O=P(O)(O)C(O)(Cc1cccc(Cl)c1)P(=O)(O)O | 198 to 200
9 | O=C(Cl)c1ccc(Oc2ccc(Oc3ccccc3)cc2)cc1 | 85 to 89
10 | CC1(C)CCC(C)(C)c2c(OCc3ccc(C(F)(F)F)cc3)cc(C(O)C#Cc3ccc(C(=O)O)cc3)cc21 (centres undefined) | 222
11 | O=C1CCC(N2C(=O)c3cccc(NCc4cccnc4)c3C2=O)C(=O)N1 (centres undefined) | 231 to 233
12 | CCCCc1nc2cc3ccccc3cc2n1Cc1ccc(C#N)cc1 | 138
13 | Cc1cccc(C=CC(=O)C=Cc2cccc(C)c2)c1 | 68 to 72
14 | CCCNC(=O)C1(CCCCO)c2ccccc2-c2ccccc21 | 73 to 75
15 | COc1ccc(CNC(=O)c2cn3c(=O)n(Cc4ccc(C(=O)O)cc4)c(=O)c(C)c3s2)cc1 | > 210
16 | Cn1cc(-c2ccccc2)c(=S)c(-c2cccc(C(F)(F)F)c2)c1 | 210
17 | CS(=O)(=O)Nc1cccc(Nc2nc(NCc3cccc(N)c3)c3nc[nH]c3n2)c1 | 170 to 173
18 | COC(=O)c1c(-c2ccccc2F)c2cc(OCc3ccccc3)ccc2c(=O)n1CC(C)C | 106 to 107
19 | O=c1ncc(F)cn1CCO | 134 to 136
20 | Cc1cccc2c1nc(COc1ccc(Cl)cc1)n2CCC(C)CC1NCCc2ccccc21 (racemic) | 114 to 116
21 | CCS(=O)(=O)Nc1cc(-c2ncnc(OC)c2C#N)c(F)cc1C#N | 187 to 189
22 | CC(=O)c1sc2sc(-c3ccncc3)c(C)c2c1C | 171 to 173
23 | C=C1c2ccccc2CC(=O)c2ccccc21 | 84 to 86
24 | Clc1nc(-c2nnc(Oc3ccccc3)o2)[nH]c1Cl | 109
25 | CCO[C@@H]1C(C(=O)Nc2ccc(Cl)cc2)=C(C)OC(OCC)(OCC)[C@H]1C (relative stereo) | 104 to 106

Row | SMILES | melting point [°C]
26 | O=C1C2CCC(N1c1ccc(F)cc1)n1c(=O)n(-c3ccccc3)c(=O)n12 (centres undefined) | 167 to 168
27 | COc1cc2c(cc1O)CCN(Cc1ccccc1)C2 | 134 to 135
28 | NS(=O)(=O)c1cc(C(=O)NNc2ccccc2)ccc1Cl | 189 to 190
29 | CC(C)(C)OC(=O)N1C[C@H](C#N)C[C@H]1C(=O)OCc1ccccc1 | 97 to 99
30 | c1cnn(Cc2ccc3c(c2)Cc2c(-c4ccsc4)n[nH]c2-3)n1 | 238 to 241
31 | COc1ccc(S(=O)O)cc1 | 173 to 174
32 | COc1cc2ncc(N[C@@H]3C[C@H]4CC[C@@H]3C4)nc2cc1OC | 184 to 186
33 | Cc1oc(-c2ccco2)nc1/C=C/c1ccc(C=O)cc1 | 209 to 210
34 | Cn1nc(-c2c(F)cccc2Cl)nc1C(=O)c1ccc(Cl)cc1 | 108 to 111
35 | COC(=O)c1nn(C)nc1C(=O)O | 125 to 126
36 | CNc1cc(C=O)cc(S(N)(=O)=O)c1Oc1ccccc1 | 166 to 167
37 | CC(=O)Nc1nc(C)c(S(=O)(=O)N(CCO)CCO)s1 | 204
38 | CC(C)OC(=O)c1cc(-n2c(=O)c3c(n(C)c2=O)CCC3)c(F)cc1F | 112 to 115
39 | Cc1nc2ccc(C(=O)NS(=O)(=O)c3ccccc3)nc2n1Cc1ccc(COc2ccccc2)cc1Cl | 203 to 205
40 | COC(=O)CS(=O)(=O)Nc1ccc(F)cc1C(F)(F)F | 84 to 86
41 | O=C(Nc1ccc(-n2nc(C(F)(F)F)cc2C(F)(F)F)cc1)c1ccccc1C(=O)c1ccccc1 | 204 to 205
42 | O=S(=O)(Nc1ccc(Cl)cc1C1=NN(c2ccccc2)CC1)C(F)(F)F | 138 to 163
43 | CN1CCN(C(=NO)C2=Nc3ccc(Cl)cc3C(c3ccccc3F)=NC2)CC1 | 198 to 200
44 | COc1cc2ncc(C#N)c(Nc3ccc4c(C)cc(=O)[nH]c4c3)c2cc1OC | > 300
45 | O=C1c2ccc([N+](=O)[O-])cc2C(=O)N1C1CCN(CCc2ccccc2)CC1 | 240 to 242
46 | COc1ccccc1C1(O)C(O)CC(C)(C)C2CN(Cc3ccccc3)CC21 (centres undefined) | 190
47 | O=[N+]([O-])C=Cc1c[nH]c2ccc(-c3ccc4[nH]cnc4c3)cc12 | > 280
48 | CCOC(=O)C(NC(C)=O)C(=O)c1ccccc1 (centres undefined) | 63 to 64
49 | CCOCCN(CCOCC)C(=O)c1n[nH]c2c(=O)[nH]c3cc(Cl)ccc3c(=O)c12 | 202
50 | CC(=O)NCN(C(=O)CCl)C(=C(C)C)C(C)C | 113 to 114

Row | SMILES | melting point [°C]
51 | CN1C(=O)C2C3C=CC(C3)C2(c2ccc(F)c(F)c2)C1=O (centres undefined) | 116 to 120
52 | Cc1cc(Nc2ccnc(Nc3ccc(S(=O)(=O)N4CCC(O)(CN(C)C)CC4)cc3)n2)ccc1F | 233
53 | O=C(O)CNC=C(Nc1cc(Cl)cc(Cl)c1)[N+](=O)[O-] | 207
54 | Cc1cc2c(Cl)c3ccccc3c(C=O)c2cc1C | 150 to 153
55 | CC(C)c1nc(-c2ncn3c2[C@@H]2CCCN2C(=O)c2c(Cl)cccc2-3)no1 | 195 to 196
56 | O=C1NCCc2c(-c3ccc(C(F)(F)F)cc3)[nH]c3cccc1c23 | 208 to 209
57 | CCCOc1ccc(S(=O)(=O)N2CCN(C)CC2)cc1-c1cc2c(=O)n(C)c(=O)n(CCC)c2[nH]1 | 240
58 | CCCCCCC(=O)N[C@H](CO)C(=O)OCc1ccccc1 | 62 to 66
59 | NS(=O)(=O)c1cccc(NC(=O)c2cnn3c(C(F)(F)F)cc(-c4ccc(F)c(F)c4)nc23)c1 | 275
60 | O=c1oc2c3c(n(-c4ccccc4)c(=O)c2c(O)c1Sc1ccccc1)-c1ccccc1C3 | 274 to 275
61 | N=C(Nc1ccccc1)Nc1ncccc1OCc1c(F)cccc1Cl | 147 to 149
62 | CC(=O)NC[C@H]1CN(c2ccc3c(c2)CC(C)N3C(=O)CO)C(=O)O1 (some centres undefined) | 130 to 133
63 | O=C1CC(c2cccc(-n3ccnc3)c2)=Nc2cc(O)c(-c3ccccc3F)cc2N1 | 220
64 | CCOC(=O)C(Nc1ccc(C(=O)OC)cc1)C(=O)OCC | 66 to 69
65 | Nc1csc(-c2cc3c(Oc4ccc(Cl)cc4)cncc3s2)n1 | 168 to 170
66 | COc1ccc([N+](=O)[O-])c(C=C[N+](=O)[O-])c1OCc1ccccc1 | 118 to 119
67 | CC1OC(CN(C)C(=O)Nc2nnc(S(=O)(=O)N(C)C)s2)OC1C (centres undefined) | 133 to 134
68 | CC(C)(N)Cn1c(CO)nc2c(N)nc3ccccc3c21 | 248 to 250
69 | CCOC(=O)C=C(c1ccc(I)cc1)c1ccc(I)cc1 | 95 to 100
70 | CC(=O)c1cc(Nc2nc(N)nc(N)n2)cc(C(C)=O)c1 | 271 to 272
71 | Nc1ccc(C(c2ccccc2)c2ccccc2)nc1 | 130 to 134
72 | O=C(c1cnccn1)N1CCN(Cc2ccc3c(c2)Cc2c(-c4ccsc4)n[nH]c2-3)CC1 | 202 to 204
73 | CCc1n[nH]c(=O)c2ccc(OC)cc12 | 230 to 235
74 | Cc1oc(-c2ccccc2)nc1COc1ccc(CON=C(C(=O)O)C(C)C)cc1 | 128 to 129
75 | Cc1cc(O)c(O)cc1CC=Cc1ccccc1 | 85

Row | SMILES | melting point [°C]
76 | CC(C)CCNC1(c2ccccc2Cl)C(=O)Nc2ccc(Cl)cc21 (centres undefined) | 152
77 | CC(C)c1sc(-c2ccccc2)c(-c2ccc(F)cc2)c1CO | 140 to 143
78 | CC(C)(C)OC(=O)N1CCC(c2ccc(COc3cccc([N+](=O)[O-])c3)nc2)CC1 | 94 to 96
79 | CC(=O)N[C@@H](C)C(=O)NCCc1ccc(O)c(O)c1 | 200 to 202
80 | CC(NC(=O)OC(C)(C)C)C(=O)Nc1cc(OCC(F)(F)F)ccc1-c1cccnc1 (centres undefined) | 149 to 152
81 | CCOP(C)(=O)c1cc(Cl)ccc1Cl (centres undefined) | 90 to 91
82 | NS(=O)(=O)c1ccc(NC(=O)[C@@H]2CCCN2C(=O)OCc2ccccc2)cc1 | 165 to 166
83 | CC1(C)CC(=C(c2ccc(O)cc2)c2ccc(C#CCO)cc2)CC(C)(C)C1 | 141 to 142
84 | CC1(C)C=Cc2c(c3ccccc3[nH]c2=O)O1 | 174 to 177
85 | O=C1Nc2cccc(-c3cccc(NS(=O)(=O)c4cc(S(=O)(=O)c5ccccc5)cs4)c3)c2/C1=C/c1ccc[nH]1 | 132 to 134
86 | COc1cc2c(Nc3ccc(Sc4nccn4C)c(Cl)c3)c(C#N)cnc2cc1NCCCN(C)C | 198 to 200
87 | Cc1ccc(CN2C(=NCCCn3ccnc3)c3cccc4cccc2c34)cc1 | 94 to 95
88 | FCc1cc(-c2nnc3c4ccccc4c(OCc4nc[nH]n4)nn23)no1 | 266 to 268
89 | CCCS(=O)(=O)c1sc(C(N)=O)c2c1-c1c(cnn1CC(F)(F)F)CC2 | 141 to 142
90 | CCN(CC)S(=O)(=O)c1c(Cl)c(Cl)c(Cl)c2nc(C(F)(F)F)[nH]c12 | 155 to 157
91 | CCOC(CNC(=S)Nc1cccc2nc(C)ccc12)OCC | 181 to 185
92 | C=C(C)C(=O)CCCCCCOc1ccc(C(=O)O)cc1 | 81 to 94
93 | Cc1cccc(-c2ccc(Cl)nn2)c1 | 112 to 113
94 | CCN(C)C(N)=C(C#N)C#N | 140 to 141
95 | O=C(O)CCCCCCCn1cc(-c2ccccc2)c(-c2ccccc2)n1 | 108 to 110
96 | CCCCCN(CCCCC)CCC(O)(P(=O)(O)O)P(=O)(O)O | 47 to 49
97 | CCOC(=O)C(C)(C)Oc1ccc2c(c1)C=C(c1nccn1C)CO2 | 210 to 215
98 | Cc1[nH]c(-c2ccccc2F)c(C)c1C#N | 125 to 127
99 | C=Cn1cc(C(N)=O)c([N+](=O)[O-])n1 | 150 to 152
